Assay [1] is described as follows: Cytoprotective activity against H2O2-induced cytotoxicity in human EAhy926 cells at 12.5 uM pre-incubated for 24 hrs before H2O2 challenge for 12 hrs by MTT assay. Format: functional, EA.hy 926.
Assay [2] is described as follows: Cytoprotective activity against H2O2-induced cytotoxicity in human EAhy926 cells at 50 uM pre-incubated for 24 hrs before H2O2 challenge for 12 hrs by MTT assay. Format: functional, EA.hy 926.
Assay [3] in a line: Anti-platelet activity in rabbit platelet-rich plasma assessed as inhibition of ADP-induced platelet aggregation at 50 uM incubated for 5 mins at 37 degC by aggregometry. Format: functional. The note with it: Oryctolagus cuniculus.
Assay [4] can be described thus: Potency index, ratio of EC50 for lipoic acid to EC50 for test compound for cytoprotective activity against H2O2-induced cytotoxicity in human EAhy926 cells pre-incubated for 24 hrs before H2O2 challenge for 12 hrs by MTT assay. Format: functional. Background: Tetrazolium dyes change colour on reduction, which living cells bring about.
The nature of assay [5]: Anti-platelet activity in rabbit platelet-rich plasma assessed as inhibition of ADP-induced platelet aggregation at 12.5 uM incubated for 5 mins at 37 degC by aggregometry. The settings on record: Oryctolagus cuniculus. Format: functional.
Assay [6] can be described thus: Cytoprotective activity against H2O2-induced cytotoxicity in human EAhy926 cells pre-incubated for 24 hrs before H2O2 challenge for 12 hrs by MTT assay. Format: functional, cell-based. The note with it: EA.hy 926.
Assay [7] is described as follows: Cytoprotective activity against H2O2-induced cytotoxicity in human EAhy926 cells at 100 uM pre-incubated for 24 hrs before H2O2 challenge for 12 hrs by MTT assay. Format: functional, EA.hy 926.
Assay [8] in a line: Anti-platelet activity in rabbit platelet-rich plasma assessed as inhibition of ADP-induced platelet aggregation at 100 uM incubated for 5 mins at 37 degC by aggregometry. Format: functional. The note with it: Oryctolagus cuniculus.
The nature of assay [9]: Anti-platelet activity in rabbit platelet-rich plasma assessed as inhibition of ADP-induced platelet aggregation incubated for 5 mins at 37 degC by aggregometry. Format: functional. The note with it: Oryctolagus cuniculus.
A short description of assay [10]: Anti-platelet activity in rabbit platelet-rich plasma assessed as inhibition of ADP-induced platelet aggregation at 25 uM incubated for 5 mins at 37 degC by aggregometry. The settings on record: Oryctolagus cuniculus. Format: functional.
Assay [11] is described as follows: Cytoprotective activity against H2O2-induced cytotoxicity in human EAhy926 cells at 25 uM pre-incubated for 24 hrs before H2O2 challenge for 12 hrs by MTT assay. Format: functional, EA.hy 926.

Each structure is given as a SMILES string.

By inhibition is commonly meant the drop in the measured response relative to a control, in per cent. The EC50 is the midpoint of the concentration-response curve. The low end stands for an effect from little substance, the high end for a need for much substance. As a reminder, the IC50 is the concentration needed to halve the response being measured. As for `CCOC(=O)/C=C/c1ccc(OC(=O)c2nc(C)c(C)nc2C)c(O)c1`, the Activity in [1] is reported as 75.7%; in [2], 210.8%; in assay [7], 375.3%; in assay [11] it was 207%. For the same compound, the inhibition at 50 µM in [3] stood at 37.9%. Besides, the “Ratio EC50” value in assay [4] was 40. In addition, the inhibition at 12.5 µM in [5] is 22%. Further, the midpoint of the response in [6], the EC50, lay at 1.7 µM. Besides, the inhibition at 100 µM in assay [8] turned out to be 58.4%. Besides, the IC50 in assay [9] turned out to be 77.4 µM. Further, in [10], the inhibition at 25 µM was 36.4%.
As for `Cc1nc(C)c(C(=O)Oc2ccc(/C=C/C(=O)O)cc2)nc1C`, the Activity stood at 34.2% in [1], 74.1% in assay [2], 93.2% in assay [7] and 46.6% in assay [11]. In addition, in assay [3], the inhibition at 50 µM turned out to be 41.7%. Moreover, the inhibition at 12.5 µM in [5] was 64.3%. In assay [6], this compound showed an EC50 of 38 µM. Further, the inhibition at 100 µM in [8] came out at 25.3%. Besides, in assay [9], the IC50 was 37.8 µM. Also, the inhibition at 25 µM in assay [10] is 53.3%.
In the case of `CCOC(=O)/C=C/c1ccc(OC)c(OC(=O)c2nc(C)c(C)nc2C)c1`, the Activity was 26.4% in [1], 89% in assay [2], 117% in [7] and 60.1% in assay [11]. In addition, the inhibition at 50 µM in assay [3] was 32.2%. For the same compound, the inhibition at 12.5 µM in assay [5] is 22.3%. The same compound registered an EC50 in [6] of 29.9 µM. The inhibition at 100 µM in [8] worked out at 39.7%. Further, the half-maximal inhibitory concentration (IC50) in assay [9] was determined as 143 µM. The inhibition at 25 µM in assay [10] was found to be 20.6%.
With `Cc1nc(C)c(C(=O)Oc2ccccc2/C=C/C(=O)O)nc1C`, the Activity was 45.7% in assay [1], 64.9% in assay [2], 80.1% in assay [7] and 61.8% in assay [11]. The inhibition at 50 µM in [3] worked out at 53.8%. In addition, the inhibition at 12.5 µM in assay [5] was 32.9%. The same compound gave an EC50 in assay [6] of 36.7 µM. Further, in assay [8], the inhibition at 100 µM is 17.2%. In addition, the IC50 in [9] is 9.6 µM. Further, the inhibition at 25 µM in assay [10] turned out to be 54.8%.
Regarding `CCOC(=O)/C=C/c1ccc(OC)cc1OC(=O)c1nc(C)c(C)nc1C`, the Activity in assay [1] was -57.6%; in [2], 20.7%; in assay [7] it was 39.9%; in assay [11] it was 16.9%. Moreover, in assay [3], the inhibition at 50 µM came to 18.7%. For the same compound, in [5], the inhibition at 12.5 µM turned out to be 84.2%. In addition, in [6], the midpoint of the response, the EC50, lay at 138 µM. For the same compound, the inhibition at 100 µM in [8] was found to be 47%. The IC50 in assay [9] came out at 28.2 µM. In addition, in [10], the inhibition at 25 µM was found to be 32.6%.
Take `CCOC(=O)/C=C/c1ccc(OC(=O)c2nc(C)c(C)nc2C)c(OC)c1`: the Activity is reported as 52.4% in assay [1], 69.7% in assay [2], 71.6% in assay [7] and 53.3% in assay [11]. Besides, the inhibition at 50 µM in assay [3] came to 49.9%. Further, the inhibition at 12.5 µM in assay [5] is 31%. In [6], this compound registered an EC50 of 38.6 µM. Moreover, the inhibition at 100 µM in assay [8] was found to be 64.4%. Besides, the IC50 in assay [9] turned out to be 58.4 µM. Also, the inhibition at 25 µM in assay [10] was determined as 37.2%.
Turning to `Cc1nc(C)c(C)nc1C` [LIGUSTRAZINE], the Activity in assay [1] is given as 11.4%; in assay [2], 22.1%; in assay [7] it was 40.9%; in assay [11], 13.6%. In assay [3], the inhibition at 50 µM turned out to be 15.3%. Also, in [5], the inhibition at 12.5 µM turned out to be 3.4%. In addition, the EC50 in [6] came to 83.4 µM. In addition, the inhibition at 100 µM in [8] is 19.6%. Further, the IC50 in [9] was determined as 265 µM. In addition, in assay [10], the inhibition at 25 µM stood at 8.6%.
Turning to `CCOC(=O)/C=C/c1cccc(OC(=O)c2nc(C)c(C)nc2C)c1`, the Activity is given as 27.9% in [1], 39.5% in assay [2], 47% in [7] and 34.2% in [11]. Further, the inhibition at 50 µM in assay [3] was 59.6%. The inhibition at 12.5 µM in [5] came to 25.1%. This compound gave an EC50 in [6] of 92.6 µM. For the same compound, the inhibition at 100 µM in assay [8] was 69.4%. Moreover, the IC50 in [9] is 35.8 µM. In addition, the inhibition at 25 µM in [10] worked out at 62.2%.
Turning to `COc1ccc(/C=C/C(=O)O)c(OC(=O)c2nc(C)c(C)nc2C)c1`, the Activity is recorded as 39.7% in [1], 31.6% in assay [2], 18% in assay [7] and -52.1% in [11]. For the same compound, the inhibition at 50 µM in [3] came to 34.1%. Moreover, the inhibition at 12.5 µM in [5] came to 16.5%. The same compound displayed an EC50 in assay [6] of 115 µM. Also, the inhibition at 100 µM in assay [8] stood at 40.9%. Further, in assay [9], the IC50 turned out to be 134 µM. The inhibition at 25 µM in assay [10] worked out at 35.1%.
